Six molecules from patent US20210395210A1, “INHIBITION OF BACTERIAL CHAPERONIN SYSTEMS” (THE TRUSTEES OF INDIANA UNIVERSITY, priority 2018, published 2021) can be followed below.

“Also recorded” adds a separate entry of the source. Where two headings read alike, the source gives them in different places.

Test [1] has as its system S. aureus Rosenbach (ATCC 25923) biofilm formation. The test can be described thus: S. aureus biofilm prevention assay (crystal violet). The class given is cell-based. Particulars: Staphylococcus aureus, read-out: S. aureus Proliferation & Biofilm Assay EC50 Preventing Biofilm Formation. The method, then: The biofilm prevention assay was carried out with S. aureus Rosenbach (ATCC 25923) using a quantitative crystal violet-based adherence assay on 96-well plates. S. aureus (ATCC 25923) bacteria were streaked onto a Tryptic Soy Broth (TSB) agar plate and grown overnight at 37° C. A fresh aliquot of TSB media was inoculated with a single bacterial colony and the cultures were grown overnight at 37° C. with shaking (250 rpm). The overnight culture was then sub-cultured (1:5 dilution) into a fresh aliquot of TSB media supplemented to a final concentration of 0.5% glucose and grown at 37° C. for 1 h with shaking, then diluted into fresh TSB media supplemented with 0.5% glucose to achieve a final OD600 reading of 0.01. Aliquots of the diluted culture (100 μL) were dispensed to 96 well polystyrene plates along with addition of 1 μL test compounds in DMSO. The inhibitor concentration range during the assay was 100 μM to 46 nM (3-fold dilution series). A second set of baseline control plates were prepared analogously, but without any bacteria added, to correct for possible compound absorbance and/or precipitation. Plates were sealed with “Breathe Easy” oxygen permeable membranes (Diversified Biotech) and left to incubate at 37° C. without shaking (stagnant assay) until the biofilm was formed. After 24 h, the planktonic cultures were removed and the plates were washed gently 2-3 times with 200 μl of water. Next, the plates were air dried and the adherent biofilms were stained with 150 μL of crystal violet solution (2.3% crystal violet in 20% Ethanol, Sigma Aldrich #HT90132) for 15 minutes at R.T. The unbound crystal violet stain was removed, then plates were gently washed again with running water and air dried for 10 min. Quantitative assessment of biofilm formation was obtained by adding 100 μL of developer solution (4:1:5 mixture of MeOH:AcOH:H2O) per well. Well absorbance was then read at 595 nm using a Molecular Devices SpectraMax Plus384 microplate reader. […] Results presented represent the averages of EC50 values obtained from at least triplicate experiments.
Establishing biofilms is another effective mechanism by which S. aureus can evade the effects of many current antibiotics, including vancomycin. […] Briefly, test compounds (1, 2, 5, 8, 11, and vancomycin) were incubated with S. aureus bacteria in media supplemented with 0.5% glucose (to support biofilm formation) for 24 h at 37° C. After 24 h, the supernatant was removed, the wells were gently washed, and the biofilm that had formed on the well surfaces were stained with crystal-violet and quantified by UV-Vis spectroscopy.

For test [2], the system named is S. aureus Rosenbach (ATCC 25923) in established biofilms. Put plainly: S. aureus biofilm penetration and bactericidal activity assay. In kind it is cell-based, Staphylococcus aureus. Particulars: read-out: S. aureus Proliferation & Biofilm Assay EC50 Killing Bacteria in Biofilms. On the procedure:
The biofilm penetration and bactericidal activity assay was carried out with S. aureus Rosenbach (ATCC 25923) as described previously by Kwasny et al. S. aureus bacteria were streaked onto a Tryptic Soy Broth (TSB) agar plate and grown overnight at 37° C. A fresh aliquot of TSB media was inoculated with a single bacterial colony and the cultures were grown overnight at 37° C. with shaking (250 rpm). The overnight culture was then sub-cultured (1:5 dilution) into a fresh aliquot of TSB media supplemented with 0.5% glucose and grown at 37° C. for 1 h with shaking, then diluted into fresh TSB media supplemented with 0.5% glucose to achieve a final OD600 reading of 0.01. Aliquots of the diluted culture (100 μL) were dispensed to 96 well polystyrene plates without any compounds added. A second set of control plates were prepared analogously, but without any bacteria added. Plates were sealed with “Breathe Easy” oxygen permeable membranes (Diversified Biotech) and left to incubate at 37° C. without shaking (stagnant assay) until biofilm was formed. After 24 h, the planktonic cultures (or media blanks in the control plates) were removed and the plates were washed gently 3 times with 200 μL of sterile phosphate buffered saline (PBS). Then, 100 μL aliquots of fresh TSB media were dispensed to the plates along with addition of 1 μL of test compounds in DMSO. The inhibitor concentration range during the assay was 100 μM to 46 nM (3-fold dilution series). The plates were sealed with “Breathe Easy” membranes and incubated at 37° C. without shaking to allow compounds to penetrate and kill bacteria in the biofilms. After 24 h, the cultures were removed and plates were washed again gently 3 times with 200 μL of sterile PBS. The remaining bacteria in the biofilms were allowed to recover by adding 100 μL of fresh TSB media per well and incubating for 24 h at 37° C. At the end of this final incubation, bacterial growth was monitored by measuring the OD600 nm using a Molecular Devices SpectraMax Plus384 microplate reader. […] Results presented represent the averages of EC50 values obtained from at least triplicate experiments.
Next, we evaluated whether or not compounds would be bactericidal to S. aureus that were within already established biofilms. In this assay, we first grew S. aureus bacteria for 24 h in the absence of test compounds so that they could establish biofilms in the wells. After 24 h, the cultures were removed, the wells were washed gently, and fresh media was added along with test compounds or vancomycin. […] Fresh media was then added and the cultures were incubated for another 24 h to allow any viable bacteria remaining in the biofilms to emerge and grow planktonically again.

Another test relates to MRSA (ATCC BAA-44). The test can be described thus: MRSA resistance generation, 12-day serial passage assay. The class given is cell-based, Staphylococcus aureus. Particulars: 12 days serial passage, EC50 per passage. On the procedure: To identify potential resistance toward compounds 1 and 11, a liquid culture, 12-day serial passage assay was employed as per previously reported procedures, and using the ATCC BAA-44 MRSA strain. MRSA bacteria were streaked onto a Tryptic Soy agar plate and grown overnight at 37° C. A fresh aliquot of Tryptic Soy Broth (TSB) was inoculated with a single bacterial colony and the cultures were grown overnight at 37° C. with shaking (250 rpm). The overnight culture was then sub-cultured (1:5 dilution) into a fresh aliquot of media and grown at 37° C. for 1 h with shaking, then diluted into fresh media to achieve a final OD600 reading of 0.01. Aliquots of the diluted culture (200 μL) were dispensed to 96 well plates along with addition of 2 μL of test compounds in DMSO (1, 11, vancomycin, and a previously-reported GroEUES inhibitor, “28R”). The inhibitor concentration range during the resistance assay was 100 μM to 48.8 nM (2-fold dilution series). Plates were sealed with “Breathe Easy” oxygen permeable membranes (Diversified Biotech) and left to incubate at 37° C. without shaking (stagnant assay). OD600 readings were taken at the 24 h time point to monitor for bacterial growth. A second set of baseline control plates were prepared analogously, without any bacteria added, to correct for possible compound absorbance and/or precipitation, as well as plate and media baseline effects. […]

[3] abbreviates: Staphylococcus aureus, ATCC25923, 24 h.

Consider `O=C(Nc1ccc(Sc2nc3ccccc3s2)cc1)c1cc(Br)cc(Br)c1O` [Compound 5, N-(4-(Benzo[d]thiazol-2-ylthio)phenyl)-3,5-dibromo-2-hydroxybenzamide], for which the EC50 in test [1] (ATCC25923, 24 h) worked out at 540 nM; in test [2] (setting [3]), 2300 nM.

`O=C(Nc1ccc(Sc2nc3ccccc3s2)c(Cl)c1)c1cc(Br)cc(Br)c1O` [Compound 1, N-(4-(Benzo[d]thiazol-2-ylthio)-3-chlorophenyl)-3,5-dibromo-2-hydroxybenzamide]: the “ability of MRSA to generate resistance (in words)” value in the test on MRSA (ATCC BAA-44) was “not able to easily generate resistance; also recorded: retained sensitivity”. Further, the EC50 in test [1] (ATCC25923, 24 h) came to 720 nM; in test [2] (setting [3]) it was 2400 nM.

For `CN[C@H](CC(C)C)C(=O)N[C@H]1C(=O)N[C@@H](CC(N)=O)C(=O)N[C@H]2C(=O)N[C@H]3C(=O)N[C@H](C(=O)N[C@H](C(=O)O)c4cc(O)cc(O)c4-c4cc3ccc4O)[C@H](O)c3ccc(c(Cl)c3)Oc3cc2cc(c3O[C@@H]2O[C@H](CO)[C@@H](O)[C@H](O)[C@H]2O[C@H]2C[C@](C)(N)[C@H](O)[C@H](C)O2)Oc2ccc(cc2Cl)[C@H]1O` [Vancomycin, vancomycin, reference compound], the EC50 in test [1] (ATCC25923, 24 h) was 540 nM; in test [2] (established 24 h biofilm, 24 h with compound, 24 h recovery, OD600), more than 100000 nM.

Regarding `O=C(Nc1cccc(Cl)c1)c1cc(Br)ccc1O` [Compound 11, 5-Bromo-N-(3-chlorophenyl)-2-hydroxybenzamide], the “ability of MRSA to generate resistance (in words)” value in the test on MRSA (ATCC BAA-44) is listed as “not able to easily generate resistance; also recorded: retained sensitivity”. Also, the EC50 in test [1] (ATCC25923, 24 h) amounted to 440 nM; in test [2] (setting [3]) it was 6900 nM.

For `O=C(Nc1ccc(Sc2nc3ccccc3s2)c(Cl)c1)c1cccc(Br)c1O` [Compound 2, N-(4-(Benzo[d]thiazol-2-ylthio)-3-chlorophenyl)-3-bromo-2-hydroxybenzamide], the EC50 in test [1] (ATCC25923, 24 h) is 1000 nM; in test [2] (setting [3]), 5600 nM.

Take `O=C(Nc1ccc(Sc2nc3ccccc3s2)cc1)c1ccccc1O` [Compound 8, N-(4-(Benzo[d]thiazol-2-ylthio)phenyl)-2-hydroxybenzamide]: the EC50 in test [1] (ATCC25923, 24 h, media with 0.5% glucose, crystal violet A595) stood at 910 nM; in test [2] (Staphylococcus aureus, ATCC25923, established 24 h biofilm, 24 h with compound, 24 h recovery, OD600) it was 2000 nM.
